Experimental data: patent publication US12139473B2, “Substituted-N-heteroaryl compounds and uses thereof” (Bionomics Limited, priority 2019, dated 2024)

What was measured:
hKv3.1 = biological target: T1, hKv3.1 (Homo sapiens, UniProt P48547); experiment: Automated patch clamp electrophysiology (Patchliner), CHO/Kv3.1 cells; type: cell-based; settings: 10 μM compound, hKv3.1 in CHO-K1, whole-cell; for Kv3.1 Activity at 10 μM Potentiation (%): peak current at voltage step of −10 mV vs vehicle (0.33% DMSO); for Kv3.1 Activity at 10 μM Voltage Shift (mV): voltage shift of the IV curve at V1/2
T1 construct: expressed in transfected cells
T1 sequence (P48547 1-511): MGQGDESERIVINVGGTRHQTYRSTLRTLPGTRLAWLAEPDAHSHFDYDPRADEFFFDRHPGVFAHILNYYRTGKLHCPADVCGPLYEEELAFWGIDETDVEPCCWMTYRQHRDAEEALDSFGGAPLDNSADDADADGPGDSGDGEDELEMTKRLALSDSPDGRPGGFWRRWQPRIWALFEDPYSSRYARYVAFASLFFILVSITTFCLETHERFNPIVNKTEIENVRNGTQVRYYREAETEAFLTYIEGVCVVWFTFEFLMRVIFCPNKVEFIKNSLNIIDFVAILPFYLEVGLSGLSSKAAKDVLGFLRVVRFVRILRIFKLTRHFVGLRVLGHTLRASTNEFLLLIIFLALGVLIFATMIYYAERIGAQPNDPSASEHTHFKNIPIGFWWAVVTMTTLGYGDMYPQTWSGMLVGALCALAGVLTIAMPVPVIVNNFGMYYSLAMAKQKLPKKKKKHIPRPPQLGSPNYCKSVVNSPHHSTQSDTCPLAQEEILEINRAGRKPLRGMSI
Procedure: (§1) hKv3.1, hKv3.2, hKv3.3, and hKv3.4 were stably expressed in CHO-K1 (Chinese hamster ovary) cells and kept under constant antibiotic selection. For in vitro assays, cells were maintained in appropriate growth medium at 37° C. and 5% CO2 in a humidified incubator.
(§2) hKv3.X expressing cells were plated in T-25 flasks for 3-4 days at 37° C. (no selection antibiotic) prior to use and grown to 80% confluence. Cells were washed twice with PBS (calcium and magnesium free) and detached with a 5-minute treatment at 37° C. with 2-3 mls of Accutase®. Cells were collected, and flask was washed in CHO-SFM II media (Life Technologies Gibco), centrifuged for 2 minutes at ˜110×g and resuspended to obtain a single cell suspension of ˜2-3×10^6 cells/ml.
(§3) The intracellular solution contained the following (in mM): KCl 50, NaCl 10, KF 60, EGTA 20, HEPES 10, adjusted to pH 7.2 with KOH and an osmolarity of 285 mOsmol. Seal enhancer was purchased from Nanion (80 mM NaCl, 3 mM KCl, 10 mM MgCl2, 35 mM CaCl2), 10 mM HEPES, pH7.4, 298 mOsmol. The external solution contained (in mM): NaCl 140, KCl 4, CaCl2) 2, MgCl2 1, HEPES 10, Glucose 5, adjusted to pH7.4 and an osmolarity of 298 mOsmol.
(§4) All compounds were initially tested at 10 uM at a final DMSO concentration of 0.33%. Compounds were dissolved in dimethylsulfoxide (DMSO) at a stock concentration of 30 mM. The compound was further diluted 1:10 to give a stock concentration of 3 mM in DMSO. The final assay solution was diluted 1:300 in External solution to give a final concentration of 10 uM. For the DMSO Control Buffer 30 uL of DMSO was added to 10 mL buffer.
(§5) All electrophysiological recordings were performed at ambient temperature (21-23° C.) using automated patch clamp (Patchliner, Nanion Technologies GmbH) in the whole-cell configuration.
(§6) Cell membrane potentials were held at −80 mV, and currents were evoked by voltage steps (1000 ms duration) from −60 to +60 mV in 10 mV increments. This was performed first with vehicle (0.33% DMSO) and then with 10 uM compound, after a 3-minute incubation period. Data was taken from 4 cells per assay.
(§7) The recordings were analysed and selected using peak current amplitude (>100 pA at the −10 mV voltage step) in the absence of compound to eliminate unsuitable cells from analysis. Peak current amplitude was measured and recorded for each voltage step and data was normalised to the maximum current at +60 mV. The normalised Kv3.x currents following addition of the compound were then compared with the currents recorded prior to compound addition (vehicle control). Positive modulation was determined as % potentiation at the voltage step of −10 mV=[current (cmpd)/current (veh)]*100−100. % potentiation≥50% was considered acceptable. In addition, voltage shift of the IV curve at V1/2 was measured. V1/2 of ≥−5 mV was also considered acceptable. IV curves were plotted in GraphPad Prism (software version 6.0) and fitted with a Boltzmann equation, where V1/2 is the voltage at half-maximal activation.

hKv3.2 = biological target: T2, hKv3.2 (Homo sapiens, UniProt Q96PR1); experiment: Automated patch clamp electrophysiology (Patchliner), CHO/Kv3.2 cells; type: cell-based; settings: 10 μM compound, hKv3.2 in CHO-K1, whole-cell; for activation at 10 µM: peak current at voltage step of −10 mV vs vehicle (0.33% DMSO), read-out: Kv3.2 Activity at 10 μM Potentiation (%); for Kv3.2 Activity at 10 μM Voltage Shift (mV): voltage shift of the IV curve at V1/2
T2 construct: expressed in transfected cells
T2 sequence (Q96PR1 1-638): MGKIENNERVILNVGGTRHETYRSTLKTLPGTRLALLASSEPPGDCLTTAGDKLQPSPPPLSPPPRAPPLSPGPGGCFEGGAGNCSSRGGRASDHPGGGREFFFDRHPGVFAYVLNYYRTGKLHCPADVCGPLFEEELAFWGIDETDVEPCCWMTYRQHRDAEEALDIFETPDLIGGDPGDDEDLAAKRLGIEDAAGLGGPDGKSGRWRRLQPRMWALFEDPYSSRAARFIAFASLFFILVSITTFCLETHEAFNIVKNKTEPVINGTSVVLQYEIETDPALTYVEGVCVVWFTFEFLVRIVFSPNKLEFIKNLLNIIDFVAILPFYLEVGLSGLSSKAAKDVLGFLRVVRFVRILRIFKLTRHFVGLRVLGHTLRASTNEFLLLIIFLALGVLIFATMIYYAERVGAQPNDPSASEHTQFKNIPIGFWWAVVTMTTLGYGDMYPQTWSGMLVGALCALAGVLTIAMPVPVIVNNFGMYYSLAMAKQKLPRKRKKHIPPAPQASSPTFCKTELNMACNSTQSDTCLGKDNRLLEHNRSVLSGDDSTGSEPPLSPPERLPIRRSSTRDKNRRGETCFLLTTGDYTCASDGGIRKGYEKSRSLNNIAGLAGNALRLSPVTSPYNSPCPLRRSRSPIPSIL
Procedure: as §1, §2, §3, §4, §5, §6, §7

Kv3.1 Activity at 10 μM Potentiation (%) (hKv3.1) | Kv3.1 Activity at 10 μM Voltage Shift (mV) (hKv3.1) | activation at 10 µM (hKv3.2) | Kv3.2 Activity at 10 μM Voltage Shift (mV) (hKv3.2) | SMILES
52% | −4.0 mV | 49% | −6.0 mV | COc1cc(Oc2cncc(N3C(=O)NC(C)(C)C3=O)n2)ccc1C [Example 53, 3-[6-(3-methoxy-4-methyl-phenoxy)pyrazin-2-yl]-5,5-dimethyl-imidazolidine-2,4-dione]
32% | −2.7 mV | 35% | −2.8 mV | COc1cc(Oc2nccc(N3C(=O)NC(C)(C)C3=O)n2)ccc1C(F)(F)F [Example 65, 3-[2-[3-methoxy-4-(trifluoromethyl)-phenoxy]pyrimidin-4-yl]-5,5-dimethyl-imidazolidine-2,4-dione]
41% | −3.8 mV | 12% | −1.6 mV | COc1cc(Oc2nccc(N3C(=O)NC4(CCCCC4)C3=O)n2)ccc1C [Example 74, 3-[2-(3-methoxy-4-methyl-phenoxy)pyrimidin-4-yl]-1,3-diazaspiro[4.5]decane-2,4-dione]
50% | −4.2 mV | 25% | −2.3 mV | COc1cc(Oc2nccc(N3C(=O)NC(C)(C)C3=O)n2)ccc1C [Example 63, 3-[2-(3-methoxy-4-methyl-phenoxy)pyrimidin-4-yl]-5,5-dimethyl-imidazolidine-2,4-dione]
– | – | 54% | −3.5 mV | COc1cc(Oc2nccc(N3C(=O)NC(C)(C)C3=O)n2)ccc1Cl [Example 66, 3-[2-(4-chloro-3-methoxy-phenoxy)pyrimidin-4-yl]-5,5-dimethyl-imidazolidine-2,4-dione]
61% | −6.9 mV | 39% | −4.6 mV | CC[C@H]1NC(=O)N(c2nccc(Oc3ccccc3-c3ccccc3)n2)C1=O [Example 58, (5R)-5-ethyl-3-[4-(2-phenylphenoxy)pyrimidin-2-yl]imidazolidine-2,4-dione]
40% | −2.7 mV | 86% | −9.2 mV | COc1cc(Oc2cc(N3C(=O)NC(C)(C)C3=O)ncn2)ccc1F [Example 13, 3-[6-(3-methoxy-4-fluoro-phenoxy)pyrimidin-4-yl]-5,5-dimethyl-imidazolidine-2,4-dione]
45% | −5.5 mV | 25% | −4.3 mV | COc1cc(Oc2cc(N3C(=O)NC(C)(C)C3=O)ncn2)ccc1C [Example 1, 3-[6-(3-methoxy-4-methyl-phenoxy)pyrimidin-4-yl]-5,5-dimethyl-imidazolidine-2,4-dione]
53% | −2.7 mV | – | – | COc1ccc(C)c(Oc2cc(N3C(=O)NC(C)(C)C3=O)ncn2)c1 [Example 18, 3-[6-(2-methyl-5-methoxy-phenoxy)pyrimidin-4-yl]-5,5-dimethyl-imidazolidine-2,4-dione]
23% | −2.1 mV | – | – | COc1cccc(Oc2cc(N3C(=O)NC(C)(C)C3=O)ncn2)c1C(C)C [Example 40, 3-[6-(2-isopropyl-3-methoxy-phenoxy)pyrimidin-4-yl]-5,5-dimethyl-imidazolidine-2,4-dione]
34% | −2.1 mV | – | – | CC[C@]1(C)NC(=O)N(c2cc(Oc3ccc(C)c(OC)c3)ncn2)C1=O [Example 3, (5S)-5-ethyl-3-[6-(3-methoxy-4-methyl-phenoxy)pyrimidin-4-yl]-5-methyl-imidazolidine-2,4-dione]
8% | −1.3 mV | – | – | COc1ccc(Oc2cc(N3C(=O)NC(C)(C)C3=O)ncn2)cc1 [Example 11, 3-[6-(4-methoxyphenoxy)pyrimidin-4-yl]-5,5-dimethyl-imidazolidine-2,4-dione]
21% | −1.6 mV | – | – | CC(C)c1cc(Oc2ccnc(N3C(=O)NC(C)(C)C3=O)n2)ccc1C#N [Example 61, 4-[2-(4,4-dimethyl-2,5-dioxo-imidazolidin-1-yl)pyrimidin-4-yl]oxy-2-isopropyl-benzonitrile]
28% | −0.9 mV | – | – | CC1(C)NC(=O)N(c2cc(Oc3cccnc3)ncn2)C1=O [Example 23, 5,5-dimethyl-3-[6-(3-pyridyloxy)pyrimidin-4-yl]imidazolidine-2,4-dione]
15% | −0.5 mV | – | – | COc1cc(Oc2cncc(N3C(=O)NC(C)(C)C3=O)n2)ccc1F [Example 54, 3-[6-(4-fluoro-3-methoxy-phenoxy)pyrazin-2-yl]-5,5-dimethyl-imidazolidine-2,4-dione]
22% | −2.2 mV | – | – | COc1ccccc1Oc1cc(N2C(=O)NC(C)(C)C2=O)ncn1 [Example 9, 3-[6-(2-methoxyphenoxy)pyrimidin-4-yl]-5,5-dimethyl-imidazolidine-2,4-dione]
20% | −3.1 mV | – | – | CC[C@@]1(C)NC(=O)N(c2ccnc(Oc3ccc(C)c(OC)c3)n2)C1=O [Example 62, (5R)-5-ethyl-3-[2-(3-methoxy-4-methyl-phenoxy)pyrimidin-4-yl]-5-methyl-imidazolidine-2,4-dione]
